Laboratory results reported in patent EP0597303A2, “Cephalosporin derivatives” (priority 1992, dated 1994).
Counter-ions that a name gives are not always drawn. Like-named read-outs stand apart in the source and are kept apart here.

Legend:
Experiment in all cases: MIC, Agar (Mueller Hinton) Dilution Method
Type in all cases: cell-based
A. calcoaceticus PCI-3 = conditions: Acinetobacter calcoaceticus, PCI3, Gram Negative
Excerpt: (§1) The in vitro activity of the compounds of formula I of the present invention as measured by the Minimum Inhibitory Concentration (MIC) in micrograms/ml utilizing the Agar (Mueller Hinton) Dilution Method against a variety of Gram-positive and Gram-negative organisms, is set forth in Table 1.

Bacillus megaterium 164 = conditions: Priestia megaterium
Excerpt: as §1

Bacillus subtilis 558 = test system: Bacillus subtilis 558
Excerpt: as §1

Cit. freundii EL-1408 = conditions: Citrobacter freundii, EL1408
Excerpt: as §1

E. coli 2008 E = conditions: Escherichia coli
Excerpt: as §1

E. coli 94 = conditions: Escherichia coli, Gram Negative
Excerpt: as §1

E. coli ATCC 25922 = conditions: Escherichia coli, ATCC25922
Excerpt: as §1

E. coli DC-2 = conditions: Escherichia coli, DC2, Gram Negative
Excerpt: as §1

E. coli Leo HA2M4 = conditions: Escherichia coli, LEOHA2M4
Excerpt: as §1

Ent. faecalis ATCC 29212 = conditions: Enterococcus faecalis, ATCC29212, Gram Positive and Others
Excerpt: as §1

Ent. hirae ATCC 8043 = conditions: Enterococcus hirae, ATCC8043, Gram Positive and Others
Excerpt: as §1

Enter. cloacae 4192-2 = conditions: Enterobacter cloacae, 41922
Excerpt: as §1

Enter. cloacae 4946 = conditions: Enterobacter cloacae, Gram Negative
Excerpt: as §1

Enter. cloacae 5699 = conditions: Enterobacter cloacae, Gram Negative
Excerpt: as §1

Escherichia coli 257 = conditions: Gram Negative
Excerpt: as §1

K. pneumoniae 369 = conditions: Klebsiella pneumoniae
Excerpt: as §1

Klebsiella pneumoniae A = conditions: Gram Negative
Excerpt: as §1

Micrococcus luteus PCI = conditions: Micrococcus luteus PCI; Gram Positive and Others; read-out: MIC
Excerpt: as §1

Mycobacterium phlei 78 = conditions: Mycolicibacterium phlei
Excerpt: as §1

Prot. mirabilis 190 = conditions: Proteus mirabilis
Excerpt: as §1

Prot. mirabilis 2 = conditions: Proteus mirabilis
Excerpt: as §1

Prot. vulgaris 100 = conditions: Proteus vulgaris, Gram Negative
Excerpt: as §1

Prot. vulgaris 1028 BC = conditions: Proteus vulgaris
Excerpt: as §1

Prov. rettgeri ATCC 9250 = conditions: Providencia rettgeri, ATCC9250, Gram Negative
Excerpt: as §1

Ps. aeruginosa 18SH = conditions: Pseudomonas aeruginosa, constitutive ß-lactamase producer, Gram Negative
Excerpt: as §1

Ps. aeruginosa 765 = conditions: Pseudomonas aeruginosa, Gram Negative
Excerpt: as §1

Ps. aeruginosa 8780 = conditions: Pseudomonas aeruginosa, Gram Negative
Excerpt: as §1

Ps. aeruginosa B = conditions: Pseudomonas aeruginosa, Gram Negative
Excerpt: as §1

Ps. aeruginosa K799/61 = conditions: Pseudomonas aeruginosa; Ps. aeruginosa K799/61; Gram Negative; read-out: MIC
Excerpt: as §1

Ps. aeruginosa K799/WT = conditions: Pseudomonas aeruginosa, Gram Negative
Excerpt: as §1

Ps. cepacia 1973 B = conditions: Burkholderia cepacia, Gram Negative
Excerpt: as §1

Ser. marcescens 1071 = conditions: Serratia marcescens
Excerpt: as §1

Ser. sp. 101 = test system: Ser. sp. 101
Excerpt: as §1

Staph. aureus 1059B = conditions: Staphylococcus aureus
Excerpt: as §1

Staph. aureus 67 = conditions: Staphylococcus aureus
Excerpt: as §1

Staph. aureus 753 = conditions: Staphylococcus aureus
Excerpt: as §1

Str. pyogenes 503-782 = conditions: Streptococcus pyogenes, 503782
Excerpt: as §1

[1] = test system: Streptococcus pneumoniae 6303
Excerpt: as §1

Xan. maltophilia 2897B = conditions: Stenotrophomonas maltophilia, Gram Negative
Excerpt: as §1

[2] = E. coli Leo HA2M4, Gram Negative, read-out: MIC
[3] = Mycobacterium phlei 78, Gram Positive and Others, read-out: MIC
[4] = Prot. mirabilis 2, Gram Negative, read-out: MIC
[5] = Ser. sp. 101, Gram Negative, read-out: MIC
[6] = Staph. aureus 753, methicillin-resistant, Gram Positive and Others, read-out: MIC
[7] = Bacillus megaterium 164, Gram Positive and Others, read-out: MIC
[8] = Bacillus subtilis 558, Gram Positive and Others, read-out: MIC
[9] = Cit. freundii EL-1408, Gram Negative, read-out: MIC
[10] = E. coli 2008 E, Gram Negative, read-out: MIC
[11] = K. pneumoniae 369, Gram Negative, read-out: MIC
[12] = Prot. mirabilis 190, Gram Negative, read-out: MIC
[13] = Staph. aureus 67, methicillin-resistant, Gram Positive and Others, read-out: MIC
[14] = Str. pyogenes 503-782, Gram Positive and Others, read-out: MIC

Row | SMILES | MIC (A. calcoaceticus PCI-3) [µg/mL] | MIC (E. coli 94) [µg/mL] | MIC (E. coli ATCC 25922) [µg/mL] | MIC (E. coli DC-2) [µg/mL] | MIC (Ent. faecalis ATCC 29212) [µg/mL] | MIC (Ent. hirae ATCC 8043) [µg/mL] | MIC (Enter. cloacae 4946) [µg/mL] | MIC (Enter. cloacae 5699) [µg/mL] | MIC (Escherichia coli 257) [µg/mL] | MIC (Klebsiella pneumoniae A) [µg/mL] | MIC (Micrococcus luteus PCI) [µg/mL] | MIC (Prot. vulgaris 100) [µg/mL] | MIC (Prov. rettgeri ATCC 9250) [µg/mL] | MIC (Ps. aeruginosa 18SH) [µg/mL] | MIC (Ps. aeruginosa 765) [µg/mL] | MIC (Ps. aeruginosa B) [µg/mL] | MIC (Ps. aeruginosa K799/61) [µg/mL] | MIC (Ps. aeruginosa K799/WT) [µg/mL] | MIC (Ps. cepacia 1973 B) [µg/mL] | MIC (Xan. maltophilia 2897B) [µg/mL] | further results
1 | N#CCC(=O)N[C@@H]1C(=O)N2C(C(=O)O)=C(COC(=O)N[C@H]3CCN(c4c(F)cc5c(=O)c(C(=O)O)cn(C6CC6)c5c4F)C3)CS[C@H]12 [Formula Iba, [6R-[3(S^*), 6 alpha, 7 beta]]-3-[[[[[1-(3-Carboxy-1-cyclopropyl-6,8-difluoro-1,4-dihydro-4-oxo-7-quinolinyl-3-pyrrolidinyl]-amino]carbonyl]oxy]methyl]-7-[(cyanoacetyl)amino]-8-oxo-5-thia 1-azabicyclo[4.2.0]oct-2-ene-2-carboxylic acid monosodium salt] | 0.0625 | 0.0313 | 0.0313 | 0.0625 | 0.5 | 0.5 | 0.0313 | 0.0625 | 0.0313 | 0.0625 | 0.0625 | 0.0625 | 0.0625 | 0.25 | 0.5 | 0.25 | 0.0625 | 0.5 | 4 | 0.25 | MIC (Bacillus megaterium 164; 164): 0.0313 µg/mL; MIC (Bacillus subtilis 558; Bacillus subtilis, 558): 0.0313 µg/mL; MIC (Cit. freundii EL-1408): 0.125 µg/mL; MIC (E. coli 2008 E; 2008E): 0.0313 µg/mL; MIC (E. coli Leo HA2M4; [2]): ≤ 0.0156 µg/mL; MIC (Enter. cloacae 4192-2; Enter. cloacae 4192-2, Gram Negative, read-out: MIC): ≤ 0.0156 µg/mL; MIC (K. pneumoniae 369; 369): 0.125 µg/mL; MIC (Mycobacterium phlei 78; [3]): 0.0625 µg/mL; MIC (Prot. mirabilis 190; 190): 0.0313 µg/mL; MIC (Prot. mirabilis 2; [4]): 0.0625 µg/mL; MIC (Prot. vulgaris 1028 BC; Prot. vulgaris 1028 BC, Gram Negative, read-out: MIC): ≤ 0.0156 µg/mL; MIC (Ps. aeruginosa 8780): 0.5 µg/mL; MIC (Ser. marcescens 1071; 1071): 0.0313 µg/mL; MIC (Ser. sp. 101; [5]): 0.0625 µg/mL; MIC (Staph. aureus 1059B; 1059B): 0.0313 µg/mL; MIC (Staph. aureus 67; 67): 0.125 µg/mL; MIC (Staph. aureus 753; [6]): 0.0625 µg/mL; MIC (Str. pyogenes 503-782): 0.0313 µg/mL; MIC ([1]; Streptococcus pneumoniae, 6303): 0.0313 µg/mL
2 | O=C(Cc1cccs1)N[C@@H]1C(=O)N2C(C(=O)O)=C(COC(=O)N3CCN(c4c(F)cc5c(=O)c(C(=O)O)cn(C6CC6)c5c4F)CC3)CS[C@H]12 [Formula Ia, [6R,7R]-3-[[[[4-(3-Carboxy-1-cyclopropyl-6,8-difluoro-1,4-dihydro-4-oxo-7-quinolinyl)-1-piperazinyl]carbonyl]-oxy]-methyl]-8-oxo-7-[(2-thienylacetyl)amino]-5-thia-1-azabicyclo-[4.2.0]oct-2-ene-2-carboxylic acid] | 0.25 | 0.0625 | 0.0625 | 0.25 | 4 | 2 | 0.0625 | 0.125 | 0.0625 | 0.25 | ≤ 0.0156 | 0.125 | 0.25 | 1 | 2 | 0.5 | 2 | 2 | 4 | 1 | MIC (Bacillus megaterium 164; [7]): 0.125 µg/mL; MIC (Bacillus subtilis 558; [8]): 0.0313 µg/mL; MIC (Cit. freundii EL-1408; [9]): 0.25 µg/mL; MIC (E. coli 2008 E; [10]): 0.0313 µg/mL; MIC (E. coli Leo HA2M4; [2]): ≤ 0.0156 µg/mL; MIC (Enter. cloacae 4192-2): 0.0625 µg/mL; MIC (K. pneumoniae 369; [11]): 0.5 µg/mL; MIC (Mycobacterium phlei 78; [3]): 0.125 µg/mL; MIC (Prot. mirabilis 190; [12]): 0.125 µg/mL; MIC (Prot. mirabilis 2; [4]): 0.25 µg/mL; MIC (Prot. vulgaris 1028 BC; 1028BC): 0.0625 µg/mL; MIC (Ser. marcescens 1071; Ser. marcescens 1071, Gram Negative, read-out: MIC): 0.125 µg/mL; MIC (Ser. sp. 101; [5]): 0.5 µg/mL; MIC (Staph. aureus 1059B; Staph. aureus 1059B, Gram Positive and Others, read-out: MIC): 0.25 µg/mL; MIC (Staph. aureus 67; [13]): 1 µg/mL; MIC (Staph. aureus 753; [6]): 0.5 µg/mL; MIC (Str. pyogenes 503-782; [14]): ≤ 0.0156 µg/mL
3 | N#CCC(=O)N[C@@H]1C(=O)N2C(C(=O)O)=C(COC(=O)N[C@@H]3CCN(c4c(F)cc5c(=O)c(C(=O)O)cn(C6CC6)c5c4F)C3)CS[C@H]12 [Formula Ibb, [6R-[3(R^*), 6 alpha, 7 beta]]-3-[[[[[1-(3-Carboxy-1-cyclopropyl-6,8-difluoro-1,4-dihydro-4-oxo-7-quinolinyl-3-pyrrolidinyi]amino]carbonyl]oxy]methyL]-7-[(cyanoacetyl)amino]-8-oxo-5-thia-1-azabicyclo[4.2.0]oct-2-ene-2-carboxylic acid monosodium salt] | 0.5 | 0.125 |  | 0.25 | 2 | 1 | 0.125 | 0.25 | 0.125 | 0.25 | 0.0625 | 0.0625 | 0.25 | 1 | 2 | 1 | 0.25 | 1 | 4 | 0.5 | MIC (Bacillus megaterium 164; [7]): 0.0625 µg/mL; MIC (Bacillus subtilis 558; [8]): 0.0625 µg/mL; MIC (Cit. freundii EL-1408; [9]): 0.5 µg/mL; MIC (E. coli 2008 E; [10]): 0.0625 µg/mL; MIC (E. coli ATCC 25922; E. coli ATCC 25922, Gram Negative, read-out: MIC): 0.0625 µg/mL; MIC (E. coli Leo HA2M4): 0.0313 µg/mL; MIC (Enter. cloacae 4192-2): 0.0313 µg/mL; MIC (K. pneumoniae 369; [11]): 0.5 µg/mL; MIC (Mycobacterium phlei 78; 78): 0.125 µg/mL; MIC (Prot. mirabilis 190; [12]): 0.0625 µg/mL; MIC (Prot. mirabilis 2; 2): 0.125 µg/mL; MIC (Prot. vulgaris 1028 BC; 1028BC): 0.0313 µg/mL; MIC (Ps. aeruginosa 8780): 2 µg/mL; MIC (Ser. marcescens 1071; 1071): 0.125 µg/mL; MIC (Ser. sp. 101): 0.125 µg/mL; MIC (Staph. aureus 1059B; 1059B): 0.125 µg/mL; MIC (Staph. aureus 67; [13]): 0.5 µg/mL; MIC (Staph. aureus 753; 753): 0.125 µg/mL; MIC (Str. pyogenes 503-782; [14]): 0.0625 µg/mL; MIC ([1]; Streptococcus pneumoniae 6303, Gram Positive and Others, read-out: MIC): 0.0625 µg/mL
